The values that follow come from patent US10125098B2, “Therapeutic compounds and methods of use thereof” (GENENTECH, INC., priority 2014, dated 2018).

Where two headings read alike, the source gives them in different places.

In data set [1] the target is T1, NaV1.5 (Homo sapiens, UniProt Q14524).
T1 construct: permanently transfected with an expression vector containing the full-length cDNA coding for the desired human sodium channel α-subunit; expressed in transfected cells; host or cells: HEK-293
T1 sequence (Q14524 whole entry): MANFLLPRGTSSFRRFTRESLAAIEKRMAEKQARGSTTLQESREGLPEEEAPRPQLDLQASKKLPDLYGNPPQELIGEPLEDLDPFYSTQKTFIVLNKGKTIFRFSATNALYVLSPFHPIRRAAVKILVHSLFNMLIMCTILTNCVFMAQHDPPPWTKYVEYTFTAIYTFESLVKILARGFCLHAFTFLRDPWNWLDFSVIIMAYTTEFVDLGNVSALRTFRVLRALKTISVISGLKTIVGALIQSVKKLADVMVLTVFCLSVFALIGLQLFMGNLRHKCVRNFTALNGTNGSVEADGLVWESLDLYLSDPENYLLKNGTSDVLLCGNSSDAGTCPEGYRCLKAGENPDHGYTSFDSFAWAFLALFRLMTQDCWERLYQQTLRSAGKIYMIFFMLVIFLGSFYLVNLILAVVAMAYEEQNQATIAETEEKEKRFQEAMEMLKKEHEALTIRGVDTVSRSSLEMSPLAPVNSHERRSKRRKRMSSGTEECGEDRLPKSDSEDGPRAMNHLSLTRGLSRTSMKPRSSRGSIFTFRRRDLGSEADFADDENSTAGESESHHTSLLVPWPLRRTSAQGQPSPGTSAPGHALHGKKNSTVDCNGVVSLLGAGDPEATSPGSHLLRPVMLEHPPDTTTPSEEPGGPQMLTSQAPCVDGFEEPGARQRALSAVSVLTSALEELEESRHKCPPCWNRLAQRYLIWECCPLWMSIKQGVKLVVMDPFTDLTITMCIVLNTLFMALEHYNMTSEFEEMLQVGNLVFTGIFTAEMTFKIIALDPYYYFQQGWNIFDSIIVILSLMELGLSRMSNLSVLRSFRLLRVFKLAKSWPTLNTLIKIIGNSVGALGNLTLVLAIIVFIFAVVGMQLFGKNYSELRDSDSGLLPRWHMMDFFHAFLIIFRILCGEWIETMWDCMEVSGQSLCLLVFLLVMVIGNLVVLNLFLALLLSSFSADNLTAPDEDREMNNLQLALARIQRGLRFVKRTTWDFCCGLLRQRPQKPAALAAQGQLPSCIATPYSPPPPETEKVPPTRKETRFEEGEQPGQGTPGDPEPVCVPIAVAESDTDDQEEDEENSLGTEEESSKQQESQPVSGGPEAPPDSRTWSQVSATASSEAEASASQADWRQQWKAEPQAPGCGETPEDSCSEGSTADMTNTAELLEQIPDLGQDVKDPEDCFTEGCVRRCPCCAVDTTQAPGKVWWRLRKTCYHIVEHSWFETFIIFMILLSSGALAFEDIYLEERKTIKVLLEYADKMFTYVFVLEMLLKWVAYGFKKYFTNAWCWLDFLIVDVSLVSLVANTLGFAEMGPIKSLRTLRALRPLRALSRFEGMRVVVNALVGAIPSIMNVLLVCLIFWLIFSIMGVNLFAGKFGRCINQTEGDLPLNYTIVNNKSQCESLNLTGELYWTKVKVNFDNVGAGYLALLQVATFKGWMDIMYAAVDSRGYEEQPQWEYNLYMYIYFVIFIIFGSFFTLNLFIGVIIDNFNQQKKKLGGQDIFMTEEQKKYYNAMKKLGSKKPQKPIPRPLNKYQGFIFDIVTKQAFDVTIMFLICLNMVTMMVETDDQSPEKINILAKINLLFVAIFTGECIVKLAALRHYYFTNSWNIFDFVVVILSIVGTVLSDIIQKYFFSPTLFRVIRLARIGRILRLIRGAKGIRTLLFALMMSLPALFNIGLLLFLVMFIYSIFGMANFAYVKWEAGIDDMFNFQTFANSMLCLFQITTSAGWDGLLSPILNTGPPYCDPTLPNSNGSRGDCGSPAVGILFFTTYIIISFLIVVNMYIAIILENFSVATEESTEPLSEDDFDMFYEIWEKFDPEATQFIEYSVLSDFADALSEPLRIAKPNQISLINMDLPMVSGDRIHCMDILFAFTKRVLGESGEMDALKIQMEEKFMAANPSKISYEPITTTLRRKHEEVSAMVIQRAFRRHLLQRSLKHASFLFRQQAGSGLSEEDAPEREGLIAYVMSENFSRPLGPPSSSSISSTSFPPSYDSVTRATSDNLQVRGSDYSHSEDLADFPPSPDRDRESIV
Kind of data set: Patch voltage clamp electrophysiology assay (EP), NaV1.5. It is filed as cell-based. To be noted: HEK-293 cells stably expressing NaV1.5 with β1 subunit, whole-cell patch clamp, membrane potential −60 mV (inactivated state). Put shortly:
(§1)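 HEK-293 cells stably expressing human α-subunit with β1; whole-cell patch clamp (PatchXpress or manual), ambient temperature, pH 7.4 external NaCl, CsF internal. Held at −60 mV (full inactivation), stepped to −150 mV for 20 ms, then test pulse; percent current decrease after compound wash-on taken as block.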
In general terms: The patch-clamp technique gives a direct electrical read-out from membranes.

Data set [2] has as its target T2, hNav1.7 (Homo sapiens, UniProt Q15858).
T2 construct: expressed in transfected cells
Briefly: Tritiated compound binding (LBA) to membranes from cells expressing hNav1.7 and the β1 subunit, competitive binding. To be noted: competitive binding vs 100 pM [3H]compound, 18 h, room temperature, membranes with hNav1.7 and β1 subunit. Put shortly:
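Membranes from cells expressing hNav1.7 with β1 were incubated 18 h at room temperature with 100 pM tritiated formula (I) compound and increasing test compound, in 100 mM NaCl, 20 mM Tris HCl pH 7.4, 0.01% BSA.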

Data set [3] addresses T3, human NaV1.7 (Homo sapiens, UniProt Q15858).
T3 construct: permanently transfected with an expression vector containing the full-length cDNA coding for the desired human sodium channel α-subunit; expressed in transfected cells; host or cells: HEK-293
Briefly: Patch voltage clamp electrophysiology assay (EP), NaV1.7. Particulars: HEK-293 cells stably expressing NaV1.7 with β1 subunit; whole-cell patch clamp, membrane potential −60 mV (inactivated state). The data set is classed as cell-based. Put shortly:
as §1

T2 sequence (Q15858 1-1977 isoform Q15858-3): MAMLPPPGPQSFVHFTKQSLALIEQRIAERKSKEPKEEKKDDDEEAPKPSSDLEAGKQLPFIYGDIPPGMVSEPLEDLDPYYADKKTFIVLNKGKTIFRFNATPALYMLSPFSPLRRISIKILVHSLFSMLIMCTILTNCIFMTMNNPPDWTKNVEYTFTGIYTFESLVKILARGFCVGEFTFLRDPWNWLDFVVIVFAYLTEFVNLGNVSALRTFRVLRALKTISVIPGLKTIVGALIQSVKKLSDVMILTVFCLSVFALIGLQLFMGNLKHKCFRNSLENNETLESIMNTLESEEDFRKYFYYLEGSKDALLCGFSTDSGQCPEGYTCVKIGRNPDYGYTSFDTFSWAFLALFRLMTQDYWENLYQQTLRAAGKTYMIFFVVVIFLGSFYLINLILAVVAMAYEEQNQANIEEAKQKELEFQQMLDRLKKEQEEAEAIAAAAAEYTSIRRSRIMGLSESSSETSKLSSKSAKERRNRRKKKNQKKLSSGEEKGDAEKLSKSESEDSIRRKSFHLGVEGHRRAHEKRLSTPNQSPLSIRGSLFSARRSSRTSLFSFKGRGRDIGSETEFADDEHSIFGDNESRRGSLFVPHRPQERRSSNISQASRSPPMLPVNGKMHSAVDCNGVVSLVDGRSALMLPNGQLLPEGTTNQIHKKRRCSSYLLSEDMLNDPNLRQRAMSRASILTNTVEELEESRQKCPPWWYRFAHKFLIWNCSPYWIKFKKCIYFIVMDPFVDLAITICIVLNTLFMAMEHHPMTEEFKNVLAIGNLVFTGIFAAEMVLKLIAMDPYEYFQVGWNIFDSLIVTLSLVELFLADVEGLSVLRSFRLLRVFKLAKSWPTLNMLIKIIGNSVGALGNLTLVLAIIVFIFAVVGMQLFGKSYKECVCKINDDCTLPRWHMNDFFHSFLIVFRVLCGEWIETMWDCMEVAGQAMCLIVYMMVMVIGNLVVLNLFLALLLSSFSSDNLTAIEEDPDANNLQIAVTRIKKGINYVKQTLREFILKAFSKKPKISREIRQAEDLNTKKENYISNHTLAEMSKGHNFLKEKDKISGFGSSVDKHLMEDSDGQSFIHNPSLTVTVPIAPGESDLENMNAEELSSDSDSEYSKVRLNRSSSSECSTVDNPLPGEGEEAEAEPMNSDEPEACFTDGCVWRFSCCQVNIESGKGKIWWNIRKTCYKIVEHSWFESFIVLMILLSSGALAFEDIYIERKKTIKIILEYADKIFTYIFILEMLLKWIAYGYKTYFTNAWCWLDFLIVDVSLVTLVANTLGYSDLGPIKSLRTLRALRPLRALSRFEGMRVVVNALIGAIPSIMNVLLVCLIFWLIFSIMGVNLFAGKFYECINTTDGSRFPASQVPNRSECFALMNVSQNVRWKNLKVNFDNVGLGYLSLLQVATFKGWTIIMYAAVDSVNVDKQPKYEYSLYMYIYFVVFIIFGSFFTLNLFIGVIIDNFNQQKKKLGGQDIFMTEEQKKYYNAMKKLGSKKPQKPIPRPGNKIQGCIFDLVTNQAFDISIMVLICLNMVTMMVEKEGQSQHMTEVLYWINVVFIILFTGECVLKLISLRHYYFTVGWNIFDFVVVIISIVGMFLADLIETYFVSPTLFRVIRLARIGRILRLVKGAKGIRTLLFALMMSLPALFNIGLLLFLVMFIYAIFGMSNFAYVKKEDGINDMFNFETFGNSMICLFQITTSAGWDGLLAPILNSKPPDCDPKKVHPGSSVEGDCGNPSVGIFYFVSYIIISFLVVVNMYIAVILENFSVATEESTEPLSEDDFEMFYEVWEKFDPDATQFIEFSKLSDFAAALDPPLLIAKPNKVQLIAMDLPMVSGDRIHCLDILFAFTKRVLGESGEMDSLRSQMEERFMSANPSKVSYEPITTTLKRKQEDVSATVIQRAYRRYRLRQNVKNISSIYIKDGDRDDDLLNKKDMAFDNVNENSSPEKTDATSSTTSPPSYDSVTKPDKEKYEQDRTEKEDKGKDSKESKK
T2 sequence (Q07699 19-218 partner): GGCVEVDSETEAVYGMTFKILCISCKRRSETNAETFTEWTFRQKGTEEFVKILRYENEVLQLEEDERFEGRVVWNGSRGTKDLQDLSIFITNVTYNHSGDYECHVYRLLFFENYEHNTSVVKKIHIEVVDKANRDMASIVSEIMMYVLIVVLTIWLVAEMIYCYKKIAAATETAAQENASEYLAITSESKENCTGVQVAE
T3 sequence (Q15858 1-1977 isoform Q15858-3): as the sequence (Q15858 1-1977 isoform Q15858-3) above
T3 sequence (Q07699 19-218 partner): as the sequence (Q07699 19-218 partner) above

Consider `O=C(O)[C@@H]1CC(F)(F)CN1C(=O)c1cc(C2CC2)c(OCC23CC4CC(CC(C4)C2)C3)cc1F` [Example 160, (2S)-1-[4-(1-adamantylmethoxy)-5-cyclopropyl-2-fluoro-benzoyl]-4,4-difluoro-pyrrolidine-2-carboxylic acid], for which the IC50 in data set [1] (read-out: Nav1.5) turned out to be 16000 nM; in data set [2], 35 nM; in data set [3], 640 nM.
In the case of `O=C(O)[C@@H]1C[C@H](O)CN1C(=O)c1cc(C2CC2)c(OCC23CC4CC(CC(C4)C2)C3)cc1F` [Example 161, (2S,4S)-1-[4-(1-adamantylmethoxy)-5-cyclopropyl-2-fluoro-benzoyl]-4-hydroxy-pyrrolidine-2-carboxylic acid], the IC50 in data set [1] (human, HEK-293 cells stably expressing human NaV1.5 with β1 subunit, pH 7.4) was ≥ 30000 nM; in data set [2], 390 nM; in data set [3] it was 980 nM.
As to `C[C@H]1OCN(C(=O)c2cc(C3CC3)c(OCC34CC5CC(CC(C5)C3)C4)cc2F)[C@@H]1C(=O)O` [Example 162, (4S,5R)-3-[4-(1-adamantylmethoxy)-5-cyclopropyl-2-fluoro-benzoyl]-5-methyl-oxazolidine-4-carboxylic acid], the IC50 in data set [1] (read-out: Nav1.5) turned out to be 5700 nM; in data set [2], 7.3 nM; in data set [3], 94 nM.
The matching figures for `C[C@@H]1OCN(C(=O)c2cc(C3CC3)c(OCC34CC5CC(CC(C5)C3)C4)cc2F)[C@H]1C(=O)O` [Example 163, (4R,5S)-3-[4-(1-adamantylmethoxy)-5-cyclopropyl-2-fluoro-benzoyl]-5-methyl-oxazolidine-4-carboxylic acid]: 4700 nM, 120 nM and 820 nM.
For `C[C@H]1OCN(C(=O)c2cc(C3CC3)c(OCC3CCN([C@@H](C)c4cc(Cl)cc(Cl)c4)CC3)cc2F)[C@@H]1C(=O)O` [Example 164, (4S,5R)-3-[5-cyclopropyl-4-[[1-[(1S)-1-(3,5-dichlorophenyl)ethyl]-4-piperidyl]methoxy]-2-fluoro-benzoyl]-5-methyl-oxazolidine-4-carboxylic acid] the same measures were 13000 nM, 25 nM and 62 nM.
Turning to `CC1O[C@H](C)[C@@H](C(=O)O)N1C(=O)c1cc(C2CC2)c(OCC23CC4CC(CC(C4)C2)C3)cc1F` (stereo partly drawn) [Example 166, (4S,5R)-3-[4-(1-adamantylmethoxy)-5-cyclopropyl-2-fluoro-benzoyl]-2,5-dimethyl-oxazolidine-4-carboxylic acid], the IC50 in data set [1] (read-out: Nav1.5) was 13000 nM; in data set [2], 90 nM; in data set [3], 750 nM.
In the case of `O=C(O)C1=CCCN1C(=O)c1cc(C2CC2)c(OCC23CC4CC(CC(C4)C2)C3)cc1F` [Example 167, 1-[4-(1-adamantylmethoxy)-5-cyclopropyl-2-fluoro-benzoyl]-2,3-dihydropyrrole-5-carboxylic acid], the values for the IC50 in data set [1] (read-out: Nav1.5), in data set [2] and in data set [3] were 28000 nM, 190 nM and 660 nM, respectively.
Consider `CC[C@H]1CCN(C(=O)c2cc(C3CC3)c(OCC34CC5CC(CC(C5)C3)C4)cc2F)[C@@H]1C(=O)O` [Example 168a, (2S,3S)-1-[4-(1-adamantylmethoxy)-5-cyclopropyl-2-fluoro-benzoyl]-3-ethyl-pyrrolidine-2-carboxylic acid], for which the figures for the IC50 in data set [1] (read-out: Nav1.5), in data set [2] and in data set [3] were 6800 nM, 610 nM and 3300 nM, respectively.
As to `CC[C@@H]1CCN(C(=O)c2cc(C3CC3)c(OCC34CC5CC(CC(C5)C3)C4)cc2F)[C@H]1C(=O)O` [Example 168b, (2R,3R)-1-[4-(1-adamantylmethoxy)-5-cyclopropyl-2-fluoro-benzoyl]-3-ethyl-pyrrolidine-2-carboxylic acid], the IC50 in data set [1] (read-out: Nav1.5) was found to be 8200 nM; in data set [2], 180 nM; in data set [3], 1300 nM.
